Results: PMC12040169 (PLOS Biology, 2025)

Experiment: in vitro
Conditions: human, hela cells, % viability
`O=C(O)CCC(=O)N1C[C@@H]2C[C@H](C1)c1c(-c3ccc(Cl)cc3)ccc(=O)n1C2` [CBK289190] showed a viability at 28.5 h, 10 µM of 85.9%.
For `O=C(NC1CCS(=O)(=O)C1)/C(=C\c1ccccc1)NC(=O)c1ccc([N+](=O)[O-])cc1` (stereo not shown) [CBK261034], the viability at 28.5 h, 10 µM was 106%.
In the case of `Cc1csc2c(C3CCCN(C(=O)c4cccnc4)C3)nc(C)n12` (stereo not shown) [CBK283329], the viability at 28.5 h, 10 µM is reported as 93.4%.
For `CCOC(=O)c1ccc(-n2c(CCC(=O)O)ccc2-c2cccs2)cc1O` [CBK266015], the viability at 28.5 h, 10 µM was 103%.
Compound `CC(=O)NCCNC(=O)c1cc(Br)cnc1NCCOc1ccccc1` [CBK076232] has a viability at 28.5 h, 10 µM of 103%.
Work on `COc1ncccc1C(=O)Nc1c(C)noc1C` [CBK200307] yielded a viability at 28.5 h, 10 µM of 103%.
Work on `O=C(O)c1ccccc1NC1SC(=O)N(c2ccccc2)C1=O` (stereo not shown) [CBK261078] yielded a viability at 28.5 h, 10 µM of 93.7%.
`CC(C)CCNC(=O)N1CCN(Cc2ccccc2)CC1` [CBK155657] gave a viability at 28.5 h, 10 µM of 87.2%.
Compound `C1=NC2C(COCc3ccccc3)CCC2N1c1ccccc1` (stereo not shown) [CBK010679] has a viability at 28.5 h, 10 µM of 107%.
Compound `CN1CCN(S(=O)(=O)c2ccc(-c3cc(C(F)(F)F)on3)s2)CC1` [CBK057780] has a viability at 28.5 h, 10 µM of 96%.
Work on `COc1ccc(C(=O)Nn2c(SCC(=O)c3ccc(F)cc3)nc3ccccc3c2=O)cc1` [CBK266688] yielded a viability at 28.5 h, 10 µM of 99.7%.
`Cc1ccc(S(=O)(=O)Cc2noc([C@@H]3C[C@@H](O)CN3CC3CCCCC3)n2)cc1` [CBK288841] gave a viability at 28.5 h, 10 µM of 115%.
Compound `CCOc1ccc(OC(=O)C2CCN(C(=O)CC(C)C)CC2)cc1` [CBK154228] has a viability at 28.5 h, 10 µM of 95.3%.
With `CNC(=S)N1CCN(c2nccnc2NS(=O)(=O)Cc2ccccc2)CC1` [CBK049044] the viability at 28.5 h, 10 µM was 102%.
Work on `O=C(c1cc2c(s1)CCC2)N1CCc2c(nc[nH]c2=O)C1` [CBK283703] yielded a viability at 28.5 h, 10 µM of 101%.
With `COc1ccc(-c2csc(N3CCN(C)CC3)n2)cc1F` [CBK305910] the viability at 28.5 h, 10 µM was 88.7%.
For `O=C(NCCn1nc(-c2cccs2)oc1=O)C1CCCC1` [CBK282345], the viability at 28.5 h, 10 µM was 105%.
With `COc1ccnc(Sc2ccc(Cl)cc2)c1C#N` [CBK018571] the viability at 28.5 h, 10 µM was 92.2%.
In the case of `O=C(N[C@@H]1COCC[C@@H]1OCC1CC1)c1cccc2c1NCCC2` [CBK307227], the viability at 28.5 h, 10 µM is reported as 102%.
`Cc1nc2ccccc2[nH]/c1=N/O` [CBK018103] showed a viability at 28.5 h, 10 µM of 104%.
`COc1ccc(Oc2ccc(C=Cc3nc4sc(C(=O)O)c(C)c4c(=O)[nH]3)cc2[N+](=O)[O-])cc1` [CBK295637] gave a viability at 28.5 h, 10 µM of 112%.
In the case of `Cc1nc2ccc(C(=O)N(C)Cc3ccco3)cn2c1N(C)C=O` [CBK145482], the viability at 28.5 h, 10 µM is reported as 99%.
With `FC(F)(F)c1cccc(OCCN2CCOCC2)n1` [CBK113289] the viability at 28.5 h, 10 µM was 105%.
`CCN1CCN(C(=O)c2csnn2)CC1` [CBK200376] gave a viability at 28.5 h, 10 µM of 92.5%.
Work on `O=C(Cc1cccc(F)c1)N1C2CCC1CC(O)(c1ccco1)C2` (stereo not shown) [CBK284138] yielded a viability at 28.5 h, 10 µM of 95.3%.
`C#CCNC(=O)[C@H]1O[C@H](CCN2CCOCC2)CC[C@@H]1O` [CBK288729] gave a viability at 28.5 h, 10 µM of 102%.
`Nc1ncnc2c1nc(N)n2[C@H]1C[C@@H](O)[C@@H](CO)O1` [CBK201222] gave a viability at 28.5 h, 10 µM of 101%.
Work on `O=C(O)c1ccc(NS(=O)(=O)c2ccc3c(c2)C(=O)c2ccccc2C3=O)cc1` [CBK299828] yielded a viability at 28.5 h, 10 µM of 88.3%.
`COC(=O)[C@H]1CCc2ccccc2N1C(=O)C1CC1` [CBK285518] showed a viability at 28.5 h, 10 µM of 78.9%.
Work on `CC1=C[C@@H](CNC(=O)c2ccccn2)[C@H](C(C)C)C[C@H]1CC(=O)O` [CBK289212] yielded a viability at 28.5 h, 10 µM of 87.5%.
Work on `O=C(NCCOc1ccc(-c2ccc(F)cc2)nn1)c1ccc(Br)o1` [CBK294429] yielded a viability at 28.5 h, 10 µM of 83.1%.
For `Nc1nnc(Sc2nccc(C(F)(F)F)n2)s1` [CBK020023], the viability at 28.5 h, 10 µM was 99.5%.
`CC(C)n1nccc1C(=O)N1CCCC(c2cc3cccnc3[nH]2)C1` (stereo not shown) [CBK284930] showed a viability at 28.5 h, 10 µM of 99.3%.
Compound `O=C(O)c1ccc(NS(=O)(=O)c2ccc(NC(=O)c3ccccc3Cl)cc2)cc1` [CBK265184] has a viability at 28.5 h, 10 µM of 93%.
Compound `CC1CCN(Cc2ccc(-c3ccc(CC(=O)NCCc4ccc(O)cc4)cn3)cc2)CC1` [CBK158384] has a viability at 28.5 h, 10 µM of 91.9%.
In the case of `CCOC(=O)c1c(NS(=O)(=O)Cc2ccccc2[N+](=O)[O-])sc2c1CCCC2` [CBK004651], the viability at 28.5 h, 10 µM is reported as 95.8%.
Compound `COc1ccc(CNC2CCCc3ccccc32)c(OC)c1C` (stereo not shown) [CBK025778G] has a viability at 28.5 h, 10 µM of 77.6%.
`C=CCOc1ccccc1CNc1nc[nH]n1` [CBK267234] showed a viability at 28.5 h, 10 µM of 93.7%.
In the case of `O=C(c1nc2ccccn2c1CN1CCCC(O)C1)N1CCOCC1` (stereo not shown) [CBK307237], the viability at 28.5 h, 10 µM is reported as 88.4%.
`CCN(CC)C(=O)CCn1c(-c2cccnc2)cc2cccnc21` [CBK282160] showed a viability at 28.5 h, 10 µM of 106%.
With `CC(C)c1ccc(S(=O)(=O)NC(CC(=O)O)c2ccccc2)cc1` (stereo not shown) [CBK266217] the viability at 28.5 h, 10 µM was 102%.
Work on `O=S(=O)(Nc1cc(Cl)nc(Cl)c1)c1ccc(-c2cc(C(F)(F)F)on2)s1` [CBK062215] yielded a viability at 28.5 h, 10 µM of 90.9%.
Work on `CC(C)(Oc1ccc(F)cc1)C(=O)N1CCC(C(=O)NCCc2ccccc2)C1` (stereo not shown) [CBK285702] yielded a viability at 28.5 h, 10 µM of 101%.
For `C#Cc1cn([C@H]2C[C@@H](O)[C@@H](CO)O2)c(=O)[nH]c1=O` [CBK201207], the viability at 28.5 h, 10 µM was 87.8%.
With `O=C1C2C3C=CC(C2C(=O)N1CCO)C1C2C(=O)N(CCO)C(=O)C2C31` (stereo not shown) [CBK263016] the viability at 28.5 h, 10 µM was 101%.
For `CC(=O)NC(CSc1cc(C)nc2ccccc12)C(=O)O` (stereo not shown) [CBK286755], the viability at 28.5 h, 10 µM was 87.4%.
Compound `Cc1cc(NS(=O)(=O)c2ccc(Cl)c(Cl)c2)n(C)n1` [CBK067254] has a viability at 28.5 h, 10 µM of 109%.
For `CN1CCC(N2CCN(C(=O)NCCN3CCOCC3)CC2)CC1` [CBK155891], the viability at 28.5 h, 10 µM was 93.8%.
In the case of `CN(C)CCCO/N=C1\CC2(CCCC2)c2ccccc21` [CBK013331], the viability at 28.5 h, 10 µM is reported as 80.7%.
Compound `COCc1nc(NCCn2c(C)cc(C)nc2=O)cc(C2CCOC2)n1` (stereo not shown) [CBK307495] has a viability at 28.5 h, 10 µM of 92.6%.
Work on `COc1ccc(S(=O)(=O)NCCNC(=O)c2cc(Br)cnc2N(C)S(C)(=O)=O)cc1` [CBK076477] yielded a viability at 28.5 h, 10 µM of 110%.
For `CCCn1cc(CN2C3CCC2CC(O)(c2ccccc2F)C3)cn1` (stereo not shown) [CBK282664], the viability at 28.5 h, 10 µM was 99.3%.
For `Cc1n[nH]c(C)c1CCCCCOc1ccccc1F` [CBK025736C], the viability at 28.5 h, 10 µM was 88.9%.
Work on `O=C(O)C1CCCCC1C(=O)Nc1ccc(S(=O)(=O)N2CCOCC2)cc1` (stereo not shown) [CBK268010] yielded a viability at 28.5 h, 10 µM of 104%.
In the case of `NC1CCN(C(=O)c2cc3ccccc3[nH]2)CC1` [CBK013294], the viability at 28.5 h, 10 µM is reported as 89.7%.
In the case of `Cc1cnc(NC(=O)C(C)Oc2ccccc2)s1` (stereo not shown) [CBK288250], the viability at 28.5 h, 10 µM is reported as 108%.
In the case of `COc1ccc(-c2[nH]c3ncccc3c2CN2CCSCC2)cc1` [CBK285338], the viability at 28.5 h, 10 µM is reported as 91.9%.
Work on `Cn1c(=O)[nH]c(=O)c2c1nc(N1CCOCC1)n2CC(O)COc1ccc(I)cc1` (stereo not shown) [CBK262438] yielded a viability at 28.5 h, 10 µM of 111%.
Work on `OCc1ccc(-c2nccnc2NCC2CC2)cc1` [CBK037334] yielded a viability at 28.5 h, 10 µM of 86%.
`Cc1ccc(S(=O)(=O)Nc2ccccc2-c2nc3ccccc3c(=O)o2)cc1` [CBK087613] showed a viability at 28.5 h, 10 µM of 94.5%.
Compound `COc1ccc(NC(=O)c2ccc(-c3cnc(Nc4ccc(N5CCOCC5)cc4)c4nccn34)cc2)cc1` [CBK091240] has a viability at 28.5 h, 10 µM of 96.7%.
`COc1ccccc1-c1nccnc1NCc1ccccn1` [CBK036894] gave a viability at 28.5 h, 10 µM of 108%.
With `COC(=O)C1CCN(S(=O)(=O)c2ccccc2[N+](=O)[O-])CC1` [CBK264393] the viability at 28.5 h, 10 µM was 115%.

Same assay, conditions: human, hela cells, % viability, bulk resorufin, single well
Compound `COc1ccc2c(c1)COC1(CCN(C(=O)CC(C)(C)CC(=O)O)CC1)O2` [CBK060855] has a viability at 28.5 h, 10 µM of 90.3%.
